{"source": "patent US20100029552A1", "about": "“Peptide inhibitors of c-jun dimerization and uses thereof” (Phylogica Limited, priority 2004, published 2010)", "key": {"[1]": {"test_system": "Primary rat neuronal cells", "experiment": "Glutamate induced cell death of primary neurons, D and L amino acid synthetic peptides", "format": "cell-based", "conditions": "FIG. 21; for protection of neurons from glutamate induced cell death: 250 μM glutamate for 5 minutes; for protection offered by the D form relative to the L form of the peptide: same concentrations, glutamate induced cell death", "text": "D amino acid forms of peptides SP35 (designated D35) (SEQ ID NO: 132) and SP36 (designated D36) (SEQ ID NO: 136) comprising D amino acids other than glycine were produced synthetically, as were peptides SP35, SP36 and TIJIP comprising L-amino acids. The retro-inverted peptides further comprised a TAT protein targeting domain fused to the C-terminus of the inverted peptide moiety and separated therefrom by a single L-glycine residue in each case. The amino acid sequences of the retro-inverted peptide analogues of SEQ ID NOs: 132 and 136 are set forth in SEQ ID NOs: 181 and 182, respectively.\nPrimary rat neuronal cells were isolated and cultured using methods known in the art. Cells were then incubated in the presence or absence of a test peptide, a positive control peptide (Ti JIP) or a combination of known small-molecule glutamate inhibitors (MK801 and CNQX). Cells were incubated in the presence of 250 μM glutamate for 5 minutes to induce cell death representative of ischemia induced cell death."}, "[2]": {"test_system": "Primary rat neuronal cells", "experiment": "Acute ischemia: anaerobic incubation of primary neurons (MTS assay)", "format": "cell-based", "conditions": "anaerobic incubator for 35 minutes, peptide 15 mins pre-insult, MTS 24 hours later; FIG. 22", "method": "Cells at the core of an ischemic event (e.g., a stroke) are subject to anaerobic conditions leading to severe energy depletion and glutamate release, which causes necrotic cell death. Such a condition is mimicked by incubating cell cultures in anaerobic conditions.\nTo determine the effect of peptides 35 (SEQ ID NO: 130) and 36 (SEQ ID NO: 134) comprising either D- or L-amino acids on an acute ischemic effect, primary rat neuronal cells were isolated and cultured. Synthetic peptides were added to cultures and the cells maintained in an anaerobic chamber for approximately 35 minutes. Cell survival was then measured.\nBriefly, isolated rat neurons were treated with peptide for 15 mins pre-insult. After addition of peptide or control, Cells were washed in glucose free balanced salt solution containing deoxy glucose to prevent glycolysis. Cells were then incubated in anaerobic incubator for 35 minutes. Post insult, solution was removed, fresh media added to cells and MTS assayed for live cells 24 hours later."}, "c-Jun": {"biological_target": "T1, c-Jun (Homo sapiens, UniProt P05412)", "T1 construct": "expressed in transfected cells; host or cells: HEK293", "T1 sequence (P05412 whole entry)": "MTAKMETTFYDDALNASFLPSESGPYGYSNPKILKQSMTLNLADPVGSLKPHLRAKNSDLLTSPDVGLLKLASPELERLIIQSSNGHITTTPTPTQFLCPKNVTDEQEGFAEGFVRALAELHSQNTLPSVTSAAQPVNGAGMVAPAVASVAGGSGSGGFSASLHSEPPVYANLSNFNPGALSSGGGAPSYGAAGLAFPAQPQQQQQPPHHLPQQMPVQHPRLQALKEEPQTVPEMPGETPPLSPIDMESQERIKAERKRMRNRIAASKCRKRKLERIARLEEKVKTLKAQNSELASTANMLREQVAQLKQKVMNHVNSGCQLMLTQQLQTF", "experiment": "Co-immunoprecipitation of c-Jun with FLAG-tagged peptides from HEK293 cells", "format": "binding", "conditions": "anti-FLAG capture, anti-c-Jun detection, FIG. 16", "method": "HEK293 cells were cultured in DMEM+10% FCS, 2 mM L-glutamine. On the day prior to transfection, cells were trypsinised and split into 6-well tissue culture plates so that they reached 80-90% confluency for transfection. Cells were co-transfected with pcDNA3-Jun (1.3 μg) and pcDNA3-peptide (2.6 μg) using Lipofectamine-2000 reagent (Life Technologies, U.S.A.) as per manufacturer's instructions. Forty-eight hours post-transfection, transfected cells were scraped from the plates, collected by centrifugation and proteins extracted in hypotonic lysis buffer (1OmM Tris, 1OmM NaCl, 2 mM EDTA, pH 7.5+protease inhibitors (Roche, U.S.A.)). Salt concentration was adjusted to 15OmM by addition of NaCl, debris pelleted and proteins in supernatant collected in fresh tubes.\nA small aliquot (40 μl) of protein was set aside for western analysis. The remainder was incubated by rotation at 4° C. for two hours, with either anti-Flag conjugated agarose beads (Sigma-Aldrich, U.S.A.) anti-Flag antibody (Sigma-Aldrich), preconjugated to anti-mouse magnetic Dynabeads (Dynal Biotech, Norway) according to manufacturer's directions. Protein complexes bound to conjugated beads were collected by centrifugation or over a Dynal magnet, washed eight times for five minutes with NET-2 buffer (50 mM Tris-Cl pH7.5, 150 mM NaCl, 0.05% Nonidet P-40). […]"}, "AP-I luciferase reporter": {"test_system": "AP-I luciferase reporter", "experiment": "AP-1 luciferase reporter assay in K562-AP1 cells transfected with pcDNA3-peptide", "format": "cell-based", "conditions": "48 hours after transfection, compared to control cells, p<0.05, FIG. 15", "method": "The K562 cell line was stably-transfected with the AP-I luciferase reporter of the Mercury Profiling kit (Clontech, U.S.A.), and clonal cell line 26 established. In 6-well tissue culture plate format, K562-AP1 cells were transfected with either pcDNA3 control, pcDNA3-Jun or pcDNA3-peptide using Lipofectamine-2000 (Life Technologies), according to manufacturer's instructions. Transfections were incubated for 48 hours, cells collected and protein lysates extracted for luciferase assay according to Mercury Profiling kit and associated protocols. Luciferase assays were performed in independent triplicates, and results for each peptide subjected to statistical analysis (SPSS software package) to determine if they were different to Jun (positive control for AP-1 activation) or pcDNA-3 (negative control for AP-I activation)."}, "SIRC cells": {"test_system": "SIRC cells", "experiment": "UV B induced cell death, FACS for propidium iodide and Annexin V", "format": "cell-based", "conditions": "10 minutes UV B, media containing 10 micromolar peptide, FIG. 18c", "method": "Cells were exposed to UV B radiation and the level of cell death determined. Briefly, corneal keratinocytes in culture were exposed to IOmins UV irradiation. Post-exposure, media was replaced with either normal media or media containing 10 micromolar peptide. Subsequently, cells were prepared for FACS analysis. FACS analysis was used to detect propidium iodide and the level of Annexin V in a cell to determine the number of cells undergoing necrosis, early apoptosis or late apoptosis."}, "Primary rat neurons": {"test_system": "Primary rat neurons", "experiment": "Glutamate induced cell death of primary neurons, in vitro ischemia model (MTS assay)", "format": "cell-based", "conditions": "for rescue of primary neurons from glutamate induced cell death / number of cells surviving glutamate compared with TI-JIP: 250 μM glutamate; for rescue of primary neurons from glutamate induced cell death: live cells assayed 24 hours later, FIG. 19, 20; for number of cells surviving glutamate compared with TI-JIP: versus known c-Jun dimerization inhibitory peptide TI-JIP, FIG. 19", "method": "Primary neuronal cells were isolated and cultured in the presence of glutamate (250 μM) for […] to induce cell death as a model of ischemia induced cell death.\nPrimary rat neurons were isolated from embryos (standard protocols), plated in cell culture dishes and maintained for 11 days in culture before experiment. Peptide was added 15 minutes to media before glutamate addition. Glutamate was added to final concentrations of 250 micromolar, for 5 mins at 37 degrees. Glutamate media removed, fresh media added. Assays for live cells done 24 hours later. Live cells were assayed using MTS assay."}}, "note": "“Also recorded” adds a separate entry of the source. Where no end group is shown, it is not given here. [ ]: non-standard residue; d: D form."}
{"substance": "D35: retro-inverted analogue of SEQ ID NO: 132 with C-terminal TAT domain after a single L-glycine; SEQ ID NO: 181 ([dR][dE][dR][dR][dS][dS][dS][dQ][dI]GG[dS][dR][dI][dS][dQ][dY][dA]GRRRQRRKKRG; also: C-terminal TAT domain: chirality not given here) [Peptide D35]", "values": [{"measurement": "protection of neurons from glutamate induced cell death", "setting": "[1]", "result": "protects a considerable proportion of neurons from glutamate induced cell death"}, {"measurement": "protection offered by the D form relative to the L form of the peptide", "setting": "[1]", "result": "superior"}, {"measurement": "rescue of cells from cell death caused by acute ischemia", "setting": "[2]", "result": "a considerable proportion of cells from cell death"}]}
{"substance": "D36: retro-inverted analogue of SEQ ID NO: 136 with C-terminal TAT domain after a single L-glycine; SEQ ID NO: 182 ([dP][dK][dI][dS][dQ][dY]G[dQ][dR][dR][dR]G[dQ][dL]GGRRRQRRKKRG; also: C-terminal TAT domain: chirality not given here) [Peptide D36]", "values": [{"measurement": "protection of neurons from glutamate induced cell death", "setting": "[1]", "result": "protects a considerable proportion of neurons from glutamate induced cell death"}, {"measurement": "protection offered by the D form relative to the L form of the peptide", "setting": "[1]", "result": "equivalent"}, {"measurement": "rescue of cells from cell death caused by acute ischemia", "setting": "[2]", "result": "a considerable proportion of cells from cell death"}]}
{"substance": "SP20: c-Jun dimerization inhibitory peptide; amino acid SEQ ID NO: 94 with flanking vector sequence, 96 without (IYSSILWGTKWCVLLVITP)", "values": [{"measurement": "binding of c-Jun in co-immunoprecipitation", "setting": "c-Jun", "result": "capable of binding c-Jun to a level detectable in a co-immunoprecipitation"}]}
{"substance": "SP34: c-Jun dimerization inhibitory peptide; amino acid SEQ ID NO: 126 with flanking vector sequence, 128 without (AYQSINSSPVLPENSQELSLHLKQHVTKS)", "values": [{"measurement": "expression of a reporter gene under control of an AP-I regulatory region", "setting": "AP-I luciferase reporter", "result": "significantly reducing expression of a reporter gene"}]}
{"substance": "SP36: c-Jun dimerization inhibitory peptide; amino acid SEQ ID NO: 134 with flanking vector sequence, 136 without (GLQGRRRQGYQSIKP)", "values": [{"measurement": "expression of a reporter gene under control of an AP-I regulatory region", "setting": "AP-I luciferase reporter", "result": "significantly reducing expression of a reporter gene"}, {"measurement": "number of cells undergoing apoptosis after UV B exposure", "setting": "SIRC cells", "result": "capable of reducing the number of cells undergoing apoptosis"}, {"measurement": "rescue of primary neurons from glutamate induced cell death", "setting": "Primary rat neurons", "result": "capable of rescuing a significant proportion of cells from cell death; also recorded: capable of rescuing almost all cells from cell death; also recorded: dose dependent manner"}, {"measurement": "number of cells surviving glutamate compared with TI-JIP", "setting": "Primary rat neurons", "result": "considerably greater"}, {"measurement": "cells rescued from glutamate induced cell death", "setting": "Primary rat neurons; about 5 μM of peptide, FIG. 20", "result": "about 100%"}, {"measurement": "protection of neurons from glutamate induced cell death", "setting": "[1]", "result": "protects a considerable proportion of neurons from glutamate induced cell death"}]}
{"substance": "SP71: c-Jun dimerization inhibitory peptide; amino acid SEQ ID NO: 158 with flanking vector sequence, 160 without (PFFWRLNKIFYFIDSRVAAAILN)", "values": [{"measurement": "expression of a reporter gene under control of an AP-I regulatory region", "setting": "AP-I luciferase reporter", "result": "significantly reducing expression of a reporter gene"}, {"measurement": "rescue of primary neurons from glutamate induced cell death", "setting": "Primary rat neurons", "result": "capable of rescuing a significant proportion of cells from cell death"}, {"measurement": "number of cells surviving glutamate compared with TI-JIP", "setting": "Primary rat neurons", "result": "considerably greater"}]}
